Laboratory results from patent US9993001B2, “Herbicidal composition” (ISHIHARA SANGYO KAISHA, LTD., priority 2014, dated 2018).

How the values were obtained:
Type in all cases: in vivo
[1] = system: barnyardgrass (Echinochloa crus-galli L.); assay: Test Example 32: pot, soil treatment, metobromuron + chlorpropham; details: soil, read-out: Growth inhibition rate of barnyardgrass (%) Measured value
Text: (§1) When the herbicidal activity in a case where two active ingredients are combined, is larger than the simple sum of the respective herbicidal activities of the two active ingredients (the expected activity), it is called a synergistic effect. The activity expected by the combination of two active ingredients can be calculated as follows (Colby S. R., “Weed”, vol. 15, p. 20-22, 1967). E=α+β−(α×β[…]) where α: growth inhibition rate when treated with x (g/ha) of herbicide X, • β: growth inhibition rate when treated with y (g/ha) of herbicide Y, • E: growth inhibition rate expected when treated with x (g/ha) of herbicide X and y (g/ha) of herbicide Y.
(§2) On the 19th day after treatment, the state of growth of barnyardgrass was visually observed and evaluated in accordance with the following standards. The growth inhibition rate (%) [measured value] and the growth inhibition rate (%) [calculated value] calculated by the Colby's method, are shown in Table 2.
(§3) Growth inhibition rate (%)=inhibition rate) (%) of 0 (equivalent to the non-treated area) to 100 (complete kill)
Soil was put into a 1/300,000 ha pot, and seeds of barnyardgrass (Echinochloa crus-galli L.) were sown. On the day after seeding, predetermined amounts of SC containing metobromuron as active ingredient (same as in Test Example 1) and EC containing chlorpropham as active ingredient (same as in Test Example 1) were diluted with water corresponding to 1,000 L per hectare and applied for soil treatment.
On the 26th day after treatment, the state of growth of barnyardgrass was visually observed and evaluated in the same manner as in Test Example 1.

polygonaceae weeds = assay: Test Example 10: corn field, soil treatment, metobromuron + pendimethalin; details: soil, read-out: Growth inhibition rate of Polygonaceae weeds (%) Measured value
Text: as §1, §2
(§4) Growth inhibition rate (%)=inhibition rate) (%) of 0 (equivalent to the non-treated area) to 100 (complete kill) […]
On the 49th day after treatment, the state of growth of polygonaceae weeds which occurred naturally, was visually observed and evaluated in the same manner as in Test Example 1, The results are shown in Table 11.

[2] = system: black nightshade (Solanum nigrum L.); assay: Test Example 14: pot, soil treatment, metobromuron + pyroxasulfone; details: soil, read-out: Growth inhibition rate of black nightshade (%) Measured value
Text: as §1, §2, §3
Soil was put into a 1/300,000 ha pot, and seeds of black nightshade (Solanum nigrum L.) were sown. Prior to germination of black nightshade, predetermined amounts of SC containing metobromuron as active ingredient (same as in Test Example 1) and WG containing pyroxasulfone as active ingredient (same as in Test Example 13) were diluted with water corresponding to 1,000 L per hectare and applied for soil treatment.
On the 12th day after treatment, the state of growth of black nightshade was visually observed and evaluated in the same manner as in Test Example 1.

[3] = system: Oriental lady's thumb (Persicaria longiseta); assay: Test Example 7: common bean field, soil treatment, metobromuron + trifluralin; details: soil, read-out: Growth inhibition rate of Oriental lady's thumb (%) Measured value
Text: as §1, §2, §4
On the 49th day after treatment, the state of growth of Oriental lady's thumb (Persicaria longiseta) which occurred naturally, was visually observed and evaluated in the same manner as in Test Example 1.

## CON(C)C(=O)Nc1ccc(Br)cc1 [Metobromuron, 3-(4-bromophenyl)-1-methoxy-1-methylurea]
[1]
  inhibition at 375 g/ha: 40%
Polygonaceae weeds
  inhibition at 1000 g/ha: 30%
[2]
  inhibition at 375 g/ha: 64%
  inhibition at 750 g/ha: 83%
[3]
  inhibition at 1500 g/ha: 10%
